Experimental data published in PubChem BioAssay (NCI).
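1) Cells in 96-well plates. 2) Compound, 48 h, 5 concentrations. 3) Linear interpolation between surrounding doses. 4) Unreached endpoint = highest concentration. Abbreviation: GI50, concentration required for 50% inhibition of growth. TGI is the concentration that stops growth completely.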

Experiments:
Test in all cases: NCI anticancer screen, dose series, 48 h; in the data active = GI50 below about 0.43 µM; inactive = the rest
[1] = test system: EKVX NSCLC
[2] = test system: CAKI-1 renal
[3] = test system: BT-549 breast
[4] = test system: MDA-N
[5] = test system: CCRF-CEM leukemia
[6] = test system: RXF 393 renal
[7] = test system: IGROV1 ovarian
[8] = test system: NCI-H226 lung
[9] = test system: MCF7 breast
[10] = test system: HCT-116 colon
[11] = test system: MDA-MB-435
[12] = test system: OVCAR-8 ovarian
[13] = test system: NCI/ADR-RES ovarian
[14] = test system: SR leukemia
[15] = test system: RPMI-8226 leukemia
[16] = test system: U251 CNS
[17] = test system: MDA-MB-231 breast
[18] = test system: UACC-62 melanoma
[19] = test system: UO-31 renal
[20] = test system: SW-620 colon
[21] = test system: A498 renal
[22] = test system: KM12 colon
[23] = test system: NCI-H522 lung
[24] = test system: M14 melanoma
[25] = test system: LOX IMVI melanoma
[26] = test system: SK-MEL-28 melanoma
[27] = test system: TK-10 renal
[28] = test system: SK-MEL-5 melanoma
[29] = test system: A549 NSCLC
[30] = test system: OVCAR-3 ovarian
[31] = test system: PC-3 prostate
[32] = test system: MOLT-4 leukemia
[33] = test system: SF-295 CNS
[34] = test system: NCI-H460 lung
[35] = test system: SNB-75 CNS
[36] = test system: HCT-15 colon
[37] = test system: T-47D breast
[38] = test system: HOP-92 NSCLC
[39] = test system: OVCAR-4 ovarian
[40] = test system: SN12C renal
[41] = test system: HT29 colon
[42] = test system: HS 578T breast
[43] = test system: MALME-3M melanoma
[44] = test system: SF-268 CNS
[45] = test system: HCC-2998 colon
[46] = test system: NCI-H23 lung
[47] = test system: HOP-62 NSCLC
[48] = test system: SNB-19 CNS
[49] = test system: OVCAR-5 ovarian
[50] = test system: HL-60(TB) leukemia
[51] = test system: K-562 leukemia
[52] = test system: 786-0 renal
[53] = test system: DU-145 prostate
[54] = test system: SF-539 CNS
[55] = test system: SK-MEL-2 melanoma
[56] = test system: SK-OV-3 ovarian
[57] = test system: ACHN renal
[58] = test system: COLO 205 colon
[59] = test system: UACC-257 melanoma

N=C1N=Nc2nc(C3(c4nc5n(c4O)C(=N)N=N5)Cc4ccccc4C3=O)c(O)n21 (stereo not given)
inactive: GI50 [3] > 100 µM | GI50 [7] 63.7 µM | GI50 [16] > 100 µM | GI50 [23] 87.5 µM | GI50 [39] > 100 µM | GI50 [55] > 100 µM
> 100 µM: TGI [1] | TGI [2] | TGI [3] | TGI [4] | TGI [5] | TGI [6] | TGI [7] | TGI [8] | TGI [9] | TGI [10] | TGI [11] | TGI [12] | TGI [13] | TGI [14] | TGI [15] | TGI [16] | TGI [17] | TGI [18] | TGI [19] | TGI [20] | TGI [22] | TGI [23] | TGI [24] | TGI [25] | TGI [26] | TGI [27] | TGI [28] | TGI [29] | TGI [30] | TGI [31] | TGI [32] | TGI [33] | TGI [34] | TGI [35] | TGI [36] | TGI [37] | TGI [38] | TGI [39] | TGI [40] | TGI [41] | TGI [42] | TGI [43] | TGI [44] | TGI [45] | TGI [46] | TGI [47] | TGI [48] | TGI [49] | TGI [50] | TGI [51] | TGI [52] | TGI [53] | TGI [54] | TGI [55] | TGI [56] | TGI [57] | TGI [58] | TGI [59]
> 43.9 µM: TGI [21]
